# Tests used:
# [1] = target: T1, cloned human m2 muscarinic receptor (Homo sapiens, UniProt P08172); assay: Binding to cloned human m2 muscarinic receptor (3H-QNB, CHO cell membranes); conditions: affinity for the m2 receptor; 3H-QNB displacement
# T1 sequence (P08172 1-466): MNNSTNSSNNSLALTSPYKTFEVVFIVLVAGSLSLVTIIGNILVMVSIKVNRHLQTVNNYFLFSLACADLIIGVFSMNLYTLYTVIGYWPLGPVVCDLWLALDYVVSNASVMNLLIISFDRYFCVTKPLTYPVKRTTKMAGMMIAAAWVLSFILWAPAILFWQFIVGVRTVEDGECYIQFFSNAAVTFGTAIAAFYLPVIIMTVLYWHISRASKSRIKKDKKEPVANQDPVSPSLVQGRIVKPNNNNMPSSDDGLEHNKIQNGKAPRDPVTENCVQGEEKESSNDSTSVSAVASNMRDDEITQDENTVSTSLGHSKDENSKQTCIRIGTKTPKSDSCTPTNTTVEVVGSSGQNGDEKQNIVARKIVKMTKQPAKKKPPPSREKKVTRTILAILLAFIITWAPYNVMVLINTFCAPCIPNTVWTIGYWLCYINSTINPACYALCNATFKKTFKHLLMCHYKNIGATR
# H3 receptor = target: T2, H3 receptor (Cavia porcellus, UniProt Q9JI35); assay: H3 receptor binding, displacement of radiolabeled Nα-methylhistamine from guinea pig brain membranes; conditions: affinity for the H3 receptor
# T2 construct: from tissue; host or cells: guinea pig brain membranes
# T2 sequence (Q9JI35 whole entry): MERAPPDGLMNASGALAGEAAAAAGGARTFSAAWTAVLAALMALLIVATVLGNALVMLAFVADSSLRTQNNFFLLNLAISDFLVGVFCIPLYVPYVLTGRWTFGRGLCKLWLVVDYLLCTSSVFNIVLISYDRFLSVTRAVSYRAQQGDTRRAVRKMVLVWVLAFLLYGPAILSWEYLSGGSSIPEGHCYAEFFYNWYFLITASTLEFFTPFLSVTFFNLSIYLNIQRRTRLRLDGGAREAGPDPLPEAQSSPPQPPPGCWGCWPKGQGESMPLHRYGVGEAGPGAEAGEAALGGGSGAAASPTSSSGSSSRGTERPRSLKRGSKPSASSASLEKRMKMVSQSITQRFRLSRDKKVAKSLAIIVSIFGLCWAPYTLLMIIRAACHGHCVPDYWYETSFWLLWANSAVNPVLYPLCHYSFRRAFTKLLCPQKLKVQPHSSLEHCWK
# Excerpt: Compounds can readily be evaluated to determine activity at H3 receptors by known methods, including the guinea pig brain membrane assay and the guinea pig neurogenic ileum contraction assay, both of which are described in U.S. Pat. No. 5,352,707. Another useful assay utilizes rat brain membranes and is described by West et al., “Identification of Two H3-Histamine Receptor Subtypes,” Molecular Pharmacology, Vol. 38, pages 610-613 (1990).
# A particularly useful screening assay measures binding to sites in guinea pig brain membranes. This test is described in detail by Korte et al., “Characterization and Tissue Distribution of H3 Histamine Receptors in Guinea Pigs by N^α-Methylhistamine,” in Biochemical and Biophysical Research Communications, Vol. 168, pages 979-986 (1990), and quantifies the displacement of bound radiolabeled N^α-methylhistamine from tissues by candidate compounds. Results are expressed as “Ki” values, in nanoMolar (nM) units, which values can be considered as being dissociation constants for the H3 antagonist on the H3 receptor system, or an index of antagonist affinity for the receptor. In general, Ki values less than about 200 nM are considered necessary for an agent to be useful as an H3 antagonist in the invention.
SMILES,Ki [1],Ki (H3 receptor)
Cc1ccccc1C(=O)N1CCC(C2CCN(Cc3ccc(S(=O)(=O)c4ccc5c(c4)OCO5)cc3)CC2)CC1 [Compound 6],1.2 nM,160 nM
CCN(CC)CCOc1ccc(CN2CCC(N3CCC(C(=O)c4ccc(S(=O)(=O)c5ccc6c(c5)OCO6)cc4)CC3)CC2)cc1 [Compound 11],0.018 nM,8 nM
CC(C)(C)OC(=O)N1CCC(C2CCN(Cc3ccc(S(=O)(=O)c4ccc5c(c4)OCO5)cc3)CC2)CC1 [Compound 5],2.6 nM,430 nM
CCCS(=O)(=O)N1CCC(N2CCC(C3(c4ccc(S(=O)(=O)c5ccc6c(c5)OCO6)cc4)OCCO3)CC2)CC1 [Compound 2],0.01 nM,140 nM
O=C(NCC1CC1)c1ccc(CN2CCC(C3CCN(Cc4ccc(C(=O)NCC5CC5)cc4)CC3)CC2)cc1 [Compound 3],0.125 nM,500 nM
CN(C)CCCOc1ccc(CN2CCC(N3CCC(C(=O)c4ccc(S(=O)(=O)c5ccc6c(c5)OCO6)cc4)CC3)CC2)cc1 [Compound 10],0.019 nM,15 nM
CCN(CC)CCOc1ccc(CN2CCC(N3CCC(C4(c5ccc(S(=O)(=O)c6ccc7c(c6)OCO7)cc5)OCCO4)CC3)CC2)cc1 [Compound 14],0.7 nM,2 nM
CN(C)CCCOc1ccc(CN2CCC(C3CCN(Cc4ccc(S(=O)(=O)c5ccc6c(c5)OCO6)cc4)CC3)CC2)cc1 [Compound 8],0.05 nM,6 nM
CN(C)CCCOc1ccc(CN2CCC(N3CCC(C4(c5ccc(S(=O)(=O)c6ccc7c(c6)OCO7)cc5)OCCO4)CC3)CC2)cc1 [Compound 13],0.8 nM,12 nM
O=C(NCC1CC1)c1ccc(CN2CCC(C3CCN(Cc4ccc(S(=O)(=O)c5ccc6c(c5)OCO6)cc4)CC3)CC2)cc1 [Compound 9],0.22 nM,290 nM
CCN(CC)CCOc1ccc(CN2CCC(C3CCN(Cc4ccc(S(=O)(=O)c5ccc6c(c5)OCO6)cc4)CC3)CC2)cc1 [Compound 7],0.07 nM,22 nM
CCCCOc1ccc(CN2CCC(N3CCC(C4(c5ccc(S(=O)(=O)c6ccc7c(c6)OCO7)cc5)OCCO4)CC3)CC2)cc1 [Compound 15],0.17 nM,43 nM
CCCCOc1ccc(CN2CCC(N3CCC(C(=O)c4ccc(S(=O)(=O)c5ccc6c(c5)OCO6)cc4)CC3)CC2)cc1 [Compound 12],4.8 nM,170 nM
CCN(CC)CCOc1ccc(CN2CCC(C3CCN(Cc4ccc(C(=O)NC(C)C)cc4)CC3)CC2)cc1 [Compound 1],0.17 nM,18 nM
c1ccc(CN2CCC(C3CCN(Cc4ccccc4)CC3)CC2)cc1 [Compound 4],3.4 nM,620 nM
